Measured values published in patent US11414431B2, “Substituted pyrazolo[1,5-a]pyrimidines as TYK2 inhibitors” (Nimbus Lakshmi, Inc., priority 2018, dated 2022).

Molecular target: human TYK2 (JH2domain-pseudokinase) (Homo sapiens (Human), UniProt P29597)
Assay: TYK2 JH2 Domain Binding Assay (KINOMEscan)
Conditions: 11-point 3-fold dilution, top concentration 30,000 nM, duplicate; read-out: hTYK2_JH2_Binding (Kd; nM)
Procedure: Binding constants for compounds of the present invention against the JH2 domain were determined by the following protocol for a KINOMEscan® assay (DiscoveRx). A fusion protein of a partial length construct of human TYK2 (JH2domain-pseudokinase) (amino acids G556 to D888 based on reference sequence NP_003322.3) and the DNA binding domain of NFkB was expressed in transiently transfected HEK293 cells. From these HEK 293 cells, extracts were prepared in M-PER extraction buffer (Pierce) in the presence of Protease Inhibitor Cocktail Complete (Roche) and Phosphatase Inhibitor Cocktail Set II (Merck) per manufacturers' instructions. The TYK2(JH2domain-pseudokinase) fusion protein was labeled with a chimeric double-stranded DNA tag containing the NFkB binding site (5′-[…]-3′) fused to an amplicon for qPCR readout, which was added directly to the expression extract (the final concentration of DNA-tag in the binding reaction is 0.1 nM).
The liganded beads were blocked with excess biotin and washed with blocking buffer (SeaBlock (Pierce), 1% BSA, 0.05% Tween 20, 1 mM DTT) to remove unbound ligand and to reduce nonspecific binding.
Extracts were loaded with DNA-tag and diluted into the binding reaction in a two step process. First extracts were diluted 1:100 in 1× binding buffer (PBS/0.05% Tween 20/10 mM DTT/0.1% BSA/2 μg/ml sonicated salmon sperm DNA) containing 10 nM DNA-tag. This dilution was allowed to equilibrate at room temperature for 15 minutes and then subsequently diluted 1:100 in 1× binding buffer. […] Kds were determined using an 11-point 3-fold compound dilution series with three DMSO control points. […] The compounds were then diluted directly into the assays such that the final concentration of DMSO was 0.9%. All reactions performed in polypropylene 384-well plates. Each was a final volume of 0.02 mL. Assays were incubated with shaking for 1 hour at room temperature. Then the beads were pelleted and washed with wash buffer (lx PBS, 0.05% Tween 20) to remove displaced kinase and test compound. […] The qPCR protocol consisted of a 10 minute hot start at 95° C., followed by 35 cycles of 95° C. for 15 seconds, 60° C. for 1 minute.
Kds were determined using an 11-point 3-fold compound dilution series with three DMSO control points. […] The compounds were then diluted directly into the assays such that the final concentration of DMSO was 0.9%. The Kds were determined using a compound top concentration of 30,000 nM. Kd measurements were performed in duplicate.
Binding constants (Kds) were calculated with a standard dose-response curve using the Hill equation: […]
The Hill Slope was set to −1.

Chain of human TYK2 (JH2domain-pseudokinase) (P29597 556-888): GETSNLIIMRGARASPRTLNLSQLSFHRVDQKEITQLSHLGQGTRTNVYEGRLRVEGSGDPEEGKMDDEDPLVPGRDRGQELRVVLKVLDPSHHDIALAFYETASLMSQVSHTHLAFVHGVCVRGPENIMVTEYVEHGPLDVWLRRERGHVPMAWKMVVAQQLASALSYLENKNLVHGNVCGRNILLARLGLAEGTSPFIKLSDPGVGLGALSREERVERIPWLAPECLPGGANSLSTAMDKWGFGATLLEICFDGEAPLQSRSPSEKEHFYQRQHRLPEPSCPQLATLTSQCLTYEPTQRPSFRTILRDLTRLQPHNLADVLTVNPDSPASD

SMILES	Kd [nM]
O=C(NC1CC1)c1cnn2c3c(c(Nc4cccc5ocnc45)nc12)OCCN3 [Compound I-749]	< 0.2
CNc1cc(Nc2cccn(-c3ncco3)c2=O)nc2c(C(=O)N[C@H]3CC[C@H](OC)C3)cnn12 [Compound I-84, N-((1S,3S)-3-Methoxycyclopentyl)-7-(methylamino)-5-((1-(oxazol-2-yl)-2-oxo-1,2-dihydropyridin-3-yl)amino)pyrazolo[1,5-a]pyrimidine-3-carboxamide]	0.2 to 1
CNc1cc(-c2cn([C@H]3CCOC[C@@H]3O)c3ncccc23)nc2c(C(=O)N[C@@H]3C[C@@H]3F)cnn12 [Compound I-506]	< 0.2
CNc1cc(Nc2ccc(F)n(-c3ccccn3)c2=O)nc2c(C(=O)NC3CC3)cnn12 [Compound I-473]	> 10
CNc1cc(-c2cnc3n(CC(=O)N(C)C)cccc2-3)nc2c(C(=O)NC3CC[C@@H]3OC)cnn12 (stereo partly shown) [Compound I-961]	< 0.2
CNc1cc(Nc2cccn(-c3ccc(C)nc3)c2=O)nc2c(C(=O)N[C@H]3C[C@@H]3OC)cnn12 [Compound I-35, N-((1S,2S)-2-Methoxycyclopropyl)-5-((6′-methyl-2-oxo-2H-[1,3′-bipyridin]-3-yl)amino)-7-(methylamino)pyrazolo[1,5-a]pyrimidine-3-carboxamide]	< 0.2
CNc1cc(Nc2cccn([C@@H]3CCC[C@@H]3O)c2=O)nc2c(C(=O)N[C@@H]3CC[C@@H](OC)C3)cnn12 [Compound I-78, 5-((1-((1R,2S)-2-Hydroxycyclopentyl)-2-oxo-1,2-dihydropyridin-3-yl)amino)-N-((1R,3R)-3-methoxycyclopentyl)-7-(methylamino)pyrazolo[1,5-a]pyrimidine-3-carboxamide]	0.2 to 1
CNc1cc(Nc2cccn([C@H]3[C@@H]4COC[C@@H]43)c2=O)nc2c(C(=O)N[C@@H]3CCC3(F)F)cnn12 [Compound I-308]	< 0.2
CNc1cc(Nc2cccn([C@H]3CCC[C@H]3O)c2=O)nc2c(C(=O)N[C@H]3CC[C@H](OC)C3)cnn12 [Compound I-88, 5-((1-((1S,2R)-2-Hydroxycyclopentyl)-2-oxo-1,2-dihydropyridin-3-yl)amino)-N-((1S,3S)-3-methoxycyclopentyl)-7-(methylamino)pyrazolo[1,5-a]pyrimidine-3-carboxamide]	> 10
CNc1cc(Nc2cccn([C@@H]3CC[C@@H]3O)c2=O)nc2c(C(=O)N[C@@H]3CCC[C@@H](OC)C3)cnn12 [Compound I-99, 5-((1-((1R,2S)-2-Hydroxycyclobutyl)-2-oxo-1,2-dihydropyridin-3-yl)amino)-N-((1R,3R)-3-methoxycyclohexyl)-7-(methylamino)pyrazolo[1,5-a]pyrimidine-3-carboxamide]	0.2 to 1
CNc1cc(-c2cn([C@@H]3COC[C@H]3OC)c3ncccc23)nc2c(C(=O)N[C@@H]3C[C@@H]3F)cnn12 [Compound I-503]	< 0.2
CNc1cc(Nc2cccn(C3CC(F)(F)C3)c2=O)nc2c(C(=O)N[C@H]3CCC[C@](C)(O)C3)cnn12 [Compound I-93, 5-((1-(3,3-Difluorocyclobutyl)-2-oxo-1,2-dihydropyridin-3-yl)amino)-N-((1S,3S)-3-hydroxy-3-methylcyclohexyl)-7-(methylamino)pyrazolo[1,5-a]pyrimidine-3-carboxamide]	0.2 to 1
CNc1cc(Nc2cccn(-c3ccccn3)c2=O)nc2c(C(=O)N[C@H]3C[C@H]3F)cnn12 [Compound I-127]	< 0.2
CNc1cc(-c2cn([C@H]3C[C@@H](COC)C3)c3ncccc23)nc2c(C(=O)N[C@@H]3CC[C@H]3OC)cnn12 [Compound I-934]	< 0.2
CNc1cc(Nc2cccn(C3CCOCC3)c2=O)nc2c(C(=O)N[C@H]3C[C@@H]3OC)cnn12 [Compound I-28, N-((1S,2S)-2-Methoxycyclopropyl)-7-(methylamino)-5-((2-oxo-1-(tetrahydro-2H-pyran-4-yl)-1,2-dihydropyridin-3-yl)amino)pyrazol[1,5-a]pyrimidine-3-carboxamide]	< 0.2
CNc1cc(-c2cnc3n([C@H]4COC[C@@H]4OC)cccc2-3)nc2c(C(=O)N[C@@H]3C[C@@H]3F)cnn12 [Compound I-823]	< 0.2
CNc1cc(-c2cnc3n([C@@H]4COC[C@H]4OC)cccc2-3)nc2c(C(=O)N[C@@H]3C[C@@H]3F)cnn12 [Compound I-822]	< 0.2
CNc1cc(Nc2cccn(-c3ncco3)c2=O)nc2c(C(=O)NC3CC[C@@H](OC)C3)cnn12 (mixture of isomers) [Compound I-71, N-((trans-1,3)-3-Methoxycyclopentyl)-7-(methylamino)-5-((1-(oxazol-2-yl)-2-oxo-1,2-dihydropyridin-3-yl)amino)pyrazolo[1,5-a]pyrimidine-3-carboxamide]	0.2 to 1

Next, values leading:

Kd [nM]	SMILES
1 to 10	CNc1cc(Nc2cccn([C@H]3C[C@@H]3F)c2=O)nc2c(C(=O)N[C@@H]3CC[C@H]3OC)cnn12 [Compound I-50, 5-((1-((1S,2S)-2-Fluorocyclopropyl)-2-oxo-1,2-dihydropyridin-3-yl)amino)-N-((1R,2R)-2-methoxycyclobutyl)-7-(methylamino)pyrazolo[1,5-a]pyrimidine-3-carboxamide]
0.2 to 1	CNc1cc(Nc2cccn([C@H]3C[C@@H]3F)c2=O)nc2c(C(=O)N[C@H]3CC[C@@H](O)C3)cnn12 [Compound I-45, 5-((1-((1S,2S)-2-Fluorocyclopropyl)-2-oxo-1,2-dihydropyridin-3-yl)amino)-N-((1S,3R)-3-hydroxycyclopentyl)-7-(methylamino)pyrazolo[1,5-a]pyrimidine-3-carboxamide]
> 10	CNc1cc(Nc2cccn(-c3coc(C)n3)c2=O)nc2c(C(=O)NC3CC3)cnn12 [Compound I-121]
> 10	CNc1cc(Nc2cccn([C@H]3CCC[C@H]3O)c2=O)nc2c(C(=O)N[C@@H]3CC[C@@H](OC)C3)cnn12 [Compound I-87, 5-((1-((1S,2R)-2-Hydroxycyclopentyl)-2-oxo-1,2-dihydropyridin-3-yl)amino)-N-((1R,3R)-3-methoxycyclopentyl)-7-(methylamino)pyrazolo[1,5-a]pyrimidine-3-carboxamide]
< 0.2	CNc1cc(-c2cn([C@@H]3COC[C@H]3O)c3ncccc23)nc2c(C(=O)NC3CC3)cnn12 [Compound I-497]
< 0.2	CC(C)n1cccc(Nc2nc3c(C(=O)N[C@@H]4CCC4(F)F)cnn3c3c2OCCN3)c1=O [Compound I-767]
< 0.2	CNc1cc(-c2cn([C@H]3CCOC[C@@H]3O)c3ncccc23)nc2c(C(=O)NC3CC3)cnn12 [Compound I-498]
1 to 10	CNc1cc(-c2cn([C@H]3CO[C@@H](COC)C3)c3ncccc23)nc2c(C(=O)N[C@@H]3CC[C@H]3OC)cnn12 [Compound I-1019, N-((1R,2R)-2-methoxycyclobutyl)-5-(1-(5-(methoxymethyl)tetrahydrofuran-3-yl)-1H-pyrrolo[2,3-b]pyridin-3-yl)-7-(methylamino)pyrazolo[1,5-a]pyrimidine-3-carboxamide]
1 to 10	CNc1cc(Nc2cccn(C3CC(F)(F)C3)c2=O)nc2c(C(=O)N[C@H]3CC[C@H](OC)C3)cnn12 [Compound I-73, 5-((1-(3,3-Difluorocyclobutyl)-2-oxo-1,2-dihydropyridin-3-yl)amino)-N-((1S,3S)-3-methoxycyclopentyl)-7-(methylamino)pyrazolo[1,5-a]pyrimidine-3-carboxamide]
< 0.2	CNc1cc(Nc2cccn([C@H]3C[C@@H](OC)C3)c2=O)nc2c(C(=O)NC3CC3)cnn12 [Compound I-5, N-Cyclopropyl-5-((1-((1s,3s)-3-methoxycyclobutyl)-2-oxo-1,2-dihydropyridin-3-yl)amino)-7-(methylamino)pyrazolo[1,5-a]pyrimidine-3-carboxamide]
1 to 10	CNc1cc(Nc2cccn([C@H]3CC[C@H]3O)c2=O)nc2c(C(=O)N[C@H]3CCC[C@H](OC)C3)cnn12 [Compound I-105, 5-((1-((1S,2R)-2-Hydroxycyclobutyl)-2-oxo-1,2-dihydropyridin-3-yl)amino)-N-((1S,3S)-3-methoxycyclohexyl)-7-(methylamino)pyrazolo[1,5-a]pyrimidine-3-carboxamide]
< 0.2	CO[C@@H]1CCC1NC(=O)c1cnn2c(N)cc(Nc3cccn(-c4ccccn4)c3=O)nc12 (stereo partly drawn) [Compound I-245, 7-Amino-N-((trans-1,2)-2-methoxycyclobutyl)-5-((2-oxo-2H-[1,2′-bipyridin]-3-yl)amino)pyrazolo[1,5-a]pyrimidine-3-carboxamide]
< 0.2	CNc1cc(Nc2cccn(C(C)C)c2=O)nc2c(C(=O)N[C@H]3CC[C@]3(C)O)cnn12 [Compound I-340]
